“Also recorded” adds a separate entry of the source.
What was measured:
SW620 cells = assay: Apparent association time constant by flow cytometry; assay type: binding, human; details: 5 μM, 4° C.
Experimental: To measure the apparent association time constant of RTS*-Cy5.5, SW620 cells were washed two times with PBS+0.5% BSA, then 1×10^5 cells were incubated with 5 μM RTS*Cy5.5 at 4° C. for different time intervals ranging from 2-15 min. The cells were immediately washed of unbound peptide several times with PBS+0.5% before analyzing via flow cytometry. The mean fluorescent intensity of SW620 cells at the various time points was ratioed with that of untreated cells and used to calculate the rate constant, k, by fitting the data to a first order kinetics model, y(t)=Imax[1−exp^(−kt)], using Origin 6.1 software.
To measure the apparent association time constant of RTS*-Cy5.5, SW620 cells were washed 2× with PBS+0.5% BSA, then ˜10^5 cells were incubated with 5 μM RTS*-Cy5.5 at 4° C. for time intervals ranging from 2-15 min. The cells were immediately washed of unbound peptide 5× with PBS+0.5% BSA before analyzing with flow cytometry. The mean fluorescence intensity of SW620 cells at the various time points was ratioed with that of untreated cells and used to calculate the rate constant k by fitting the data to a first order kinetics model, y(t)=Imax[1−exp^(−kt)], using Origin 6.1 software. An apparent association time constant k=0.83 min^−1 which corresponds to <1.2 min was measured.

colonic dysplasia = assay: In vivo fluorescence endoscopy of colon in CPC;Apc mouse; details: CPC;Apc mouse colon
Text: A genetically engineered mouse model (Cpc;Apc) that spontaneously forms adenomatous polyps in the colon was used for this study and handled according to Institutional Guidelines. The colons of anesthetized mice were first cleaned with water before imaging with a small animal endoscope (Karl Storz Veterinary Endoscope) using the white light channel to locate polyps by identifying anatomic landmarks and the distance of the endoscope tip from the anus. […] Fluorescent and reflectance images were then collected with the same endoscope set to the appropriate channels. Once in vivo imaging was complete, four of the mice used in the study were euthanized and colons harvested. Polyps and flat lesions detected during fluorescence imaging were located, removed, and processed for histology (H&E).
These mice are genetically-engineered to spontaneously develop colonic dysplasia, and the colonic lesions that develop are molecularly and histologically similar to that seen in human disease, making these mice a good model for monitoring cancer development. Because the extra-cellular domain of claudin-1 is completely homologous between human and mouse, peptides developed for human targets can be directly used in mouse imaging experiments. […] CPC;Apc mice were imaged at ˜3 months of age when they first begin to develop dysplasia. […] After imaging is completed, mice were euthanized, and the colons were resected. Based on the location of dysplastic lesions determined using fluorescence images collected with endoscopy, a pathologist measured the depth of dysplasia on histology, as shown by the dashed arrow in FIG. 7E. […] Images are obtained from mice over at least three sessions separated by 1 week to monitor for cancer progression.

[1] = system: proximal human colon specimens; assay: Immunofluorescence of proximal human colon with claudin-1 peptide and antibody
Experimental: Formalin-fixed, paraffin-embedded (FFPE) specimens from human proximal colon were obtained from the archived tissue bank in the Department of Pathology at the University of Michigan. 5 μm thick sections were cut, mounted onto glass slides (Superfrost Plus, Fischer Scientific). The tissues were deparaffinized using a standard protocol. The sections were incubated with 3 rounds of xylene (3 min each) and 2 rounds of 100% and 95% ethanol (2 min each), and hydrated with water for 5 min. Antigen retrieval was performed with 10 mM citric acid buffer containing 0.05% Tween 20; pH 6.0. The specimens were placed in a citric acid buffer, maintained at a sub-boiling temperature for 15 min, and then allowed to cool to RT for 30 min. […] Confocal fluorescence images were collected with using a 63× oil immersion objective (Leica TCS SP5 Microsystems). […]
The mean fluorescence intensities from 3 boxes with dimensions of 20×20 μm2 placed completely within the surface epithelium of each image was measured for RTS*-Cy5.5 using custom Matlab software (MathWorks Inc). […]
Co-localization of peptide and antibody binding can be appreciated on these merged images, and the extent is characterized by the Pearson's correlation coefficient ρ. We measured the fluorescence intensities from binding of the RTS*-Cy5.5 peptide in a set of 3 boxes with dimensions of 20×20 μm^2 located at random on cells in the epithelium.

Substance: RTS*-Cy5.5: RTSPSSR labeled at the C-terminus with Cy5.5 via a GGGSK linker
- time corresponding to association time constant (SW620 cells): < 1.2 min
- apparent association time constant k (SW620 cells; 2-15 min): 0.83 min⁻¹
- fluorescence signal from dysplasia on endoscopy (colonic dysplasia): Increased signal; also recorded: increased fluorescence
- binding on confocal microscopy ([1]; normal colonic mucosa and hyperplastic polyps): minimal fluorescence intensity; also recorded: minimal binding
- binding on confocal microscopy ([1]; sessile serrated adenomas (SSA) and adenomas): strong binding; also recorded: found to bind; also recorded: Strong staining

— patent US10746738B2, “Claudin-1 peptide reagents and methods” (THE REGENTS OF THE UNIVERSITY OF MICHIGAN, priority 2015, dated 2020)
